Here are results for one compound from patent US11648199B2 (AI Therapeutics, Inc, priority 2014, dated 2023).

Entries after “also recorded” stand apart in the source; their conditions may differ. Read-outs that look alike come from different tables or passages of the source.

Data set [1] in a line: Rapamycin in lung and blood by LC-MS/MS after oropharyngeal aspiration (OPA) or oral gavage. The data set is classed as in vivo, male C57BL/6 mice. The protocol:
Test Chemical Preparation: Evans Blue was prepared at 0.5% w/v in sterile distilled water. Rapamune Oral® was administered as supplied for oral dosing.
Dosing: Each animal was weighed prior to dosing to determine the amount of dose to be administered. A single gavage dose was administered using a […], glass syringe (Hamilton, Reno, Nev.) fitted with a ball-tipped 20-G stainless steel gavage dosing needle (Popper & Sons Inc., New Hyde Park, N.Y.). The dose administered to each animal was determined from the weight of the full syringe minus that of the empty syringe. The dosing time was recorded. Dosing of animals was spaced apart to allow blood collection at the appropriate times. The dose formulations administered to each group are shown below.
Each mouse was anesthetized with isoflurane, and restrained with the mouth open. The tongue was held to one side of the mouth with forceps, and the dose was slowly injected into the distal part of the oral cavity. The nostrils were covered with a finger for two breaths to ensure aspiration (Rao et al., 2003).
Collection of Blood and Lung Samples: At study termination (1 or 72 h after dosing), mice were anesthetized by exposure to CO2, and blood was collected by cardiac puncture with dipotassium EDTA as anticoagulant. Lung tissue was excised and divided into the right and left lung. The left lung was used for analysis, and the right lung flash frozen in liquid nitrogen and stored at −70° C. for further analysis.
Triamcinolone was used as internal standard.
Lung homogenate was prepared by homogenization of weighed lung samples with 2.8-mm ball bearings in a homogenizer with tissue+deionized water (1:3 w/v) in a SPEX SamplePrep 2010 Geno/Grinder.
The concentrations of standards were arranged so that each standard came from an alternate stock standard. A six-point calibration curve, each made in triplicate, was employed for analyte quantitation. A simple linear regression model with or without weighting was employed for curve fitting. The concentration range determined was from 1-2000 ng/mL in blood and 2-2000 ng/mL in lung homogenate.
Thirty (30) μL of matrix, 30 μL of spiking solution (methanol for blanks and samples), 10 μL Internal standard solution (in MeOH) and 90 μL of MeOH were pipetted into microcentrifuge tubes, vortexed briefly, then centrifuged for 6 min at 10,000 RPM at −4° C. Aliquots (90 μL) of supernatant were transferred to LC vial inserts, and then analyzed by LC-MS/MS (Table 2).

The test system of data set [2] is phosphorylated S6 protein (mTOR activity). Put plainly: Phosphorylated S6 in mouse lung after OPA or oral rapamycin. The format is in vivo, C57bl/6 mice. From the text:
To validate this approach, we used the presence of phosphorylated S6 protein in murine lung tissue as a biomarker for mTOR activity. In the mouse strain used (C57b1/6), the mouse airway and alveolar epithelial cells have constitutively active (phosphorylated, “p”) S6 protein. The S6 protein is typically phosphorylated by S6K which is downstream of mTORC1 and is activated, for example, downstream of growth factors such as epidermal growth factor (EGF), AKT, ERK, and RSK. mTORC1 promotes cell growth and proliferation by stimulating anabolic processes such as biosynthesis of lipids, proteins, and organelles, and suppressing catabolic processes such as autophagy.

Data set [3] can be described thus: 28-day repeat dose inhalation toxicokinetics, study 7300227. The data set is classed as in vivo, Beagle dogs. As to conditions: for concentration at 24 h: Beagle, dog, lung, read-out: Lung 24 hr trough levels; for Blood trough levels / Max blood levels: average of D28. From the text: For the dog study, a positive flow delivery system (PFDS) consisting of a central plenum and delivery arms was utilized. The central plenum was of modular design with separate ports into which were attached 5 delivery arms fitted with oronasal exposure masks fitted with inlet and outlet tubes. The mask was fitted over the dog's muzzle in such a way that the nose was inside the mask, allowing entrance and exit of air. During exposure, animals wore a harness and were placed on a restraint platform. The harness was attached to two side poles on the platform in order to restrict lateral movement of the dog. The front part of the harness was loosely attached to a hook on the front of the platform to prevent the animal from turning around. […] For each dosing group, one set of animals (N=6) was dosed for 60 minutes each day for 28 consecutive days.

Data set [4] concerns TSC2 deficient TRI-AML101 cell line. Description: Cell viability, 10 point dose response, CellTiter-Glo. To be noted: 72 hours after compound addition, relative to DMSO control (FIG. 7, bottom). (In general: Cellular ATP, detected with luciferase, serves as a proxy for viable cell number.)
Experimental: Two thousand cells in 50 uL of growth media (DMEM, 10% FBS, and 1% Penicillin/Streptomycin) were plated per well in a 96 well plate. […] 72 hours after compound addition, relative cell viability was determined by CellTiter-Glo® luminescence assay (Promega) and expressed as a percentage relative to vehicle (DMSO) treated control cells.
The mark [5] stands for this setting: emitted dose 160 ug, repeat inhaled daily dose 40 ug.
The mark [6] stands for this setting: emitted dose 424 ug, repeat inhaled daily dose 106 ug.

`CO[C@H]1C[C@@H]2CC[C@@H](C)[C@@](O)(O2)C(=O)C(=O)N2CCCC[C@H]2C(=O)O[C@H]([C@H](C)C[C@@H]2CC[C@@H](O)[C@H](OC)C2)CC(=O)[C@H](C)/C=C(\C)[C@@H](O)[C@@H](OC)C(=O)[C@H](C)C[C@H](C)/C=C/C=C/C=C/1C` [Rapamycin, (3 S,6R,7E,9R,10R,12R,14S,15E,17E,19E,21S,23 S,26R,27R,34aS)-9,10,12,13,-14,21,22,23,24,25,26,27,32,33,34,34a-hexadecahydro-9,27-dihydroxy-3-[(1R)-2-[(1S,3R,4R)-4-hydroxy-3-methoxycyclohexyl]-1-methylethyl]-10,21-dimethox-y-6,8,12,14,20,26-hexamethyl-23,27-epoxy-3H-pyrido[2,1-c][1,4]oxaazacyclohentriacontine-1,5,11,28,29(4H,6H,31H)-pentone]: the “rapamycin in blood, in words” value in data set [1] (OPA 1 mg/kg, 72 h) is “below the limit of quantitation; also recorded: undetectable”. The “Blood (ng/ml)” value in data set [1] (OPA 1 mg/kg, 72 h post-dose, individual mice) is “<ELOQ”. The “Lung (ng/g tissue)” value in data set [1] (gavage (Rapamune Oral) 1 mg/kg, 1 h post-dose, individual mice, 1 mg/kg) is “<LOQ”. Also, in data set [1] (oral (gavage) 1 mg/kg, 72 hrs), the “rapamycin in lung or blood, in words” value was “undetectable”. Also, the “level of phosphorylated S6 (pS6) in lung” value in data set [2] (OPA 1 mg/kg, 1 hr (FIG. 8A)) is given as “reduced substantially”; in data set [2] (OPA 1 mg/kg, 72 hr (FIG. 8A)) it was “remained suppressed”; in data set [2] (oral gavage 1 mg/kg, 1 hr (FIG. 8A)), “reduced substantially”. In addition, the concentration at 24 h in data set [3] (inhaled, 106 ug) was 61 ng/g; in data set [3] (emitted dose 160 ug, repeat inhaled daily dose 40 ug, after 28 days), 32 ng/g. For the same compound, the “Blood trough levels” value was determined as 1.9 ng/mL in data set [3] (setting [5]) and 5.9 ng/mL in data set [3] (setting [6]). For the same compound, the “Max blood levels” value in data set [3] (setting [5]) was found to be 7.4 ng/mL; in data set [3] (setting [6]), 27.3 ng/mL. The “lowest concentration at which viability was inhibited” value in data set [4] worked out at 0.05 nM.
